Legend:
[1] = biological target: T1, Na—K—Cl co-transporter (Homo sapiens, UniProt P55011); experiment: Na—K—Cl co-transport measured as bumetamide-sensitive K influx (86Rb tracer) in human TM cell monolayers; assay type: cell-based; details: human TM cells
T1 construct: endogenous in cells; host or cells: cultured human trabecular meshwork (TM) cells, normal or glaucomatous donors
T1 sequence (P55011 1-1212): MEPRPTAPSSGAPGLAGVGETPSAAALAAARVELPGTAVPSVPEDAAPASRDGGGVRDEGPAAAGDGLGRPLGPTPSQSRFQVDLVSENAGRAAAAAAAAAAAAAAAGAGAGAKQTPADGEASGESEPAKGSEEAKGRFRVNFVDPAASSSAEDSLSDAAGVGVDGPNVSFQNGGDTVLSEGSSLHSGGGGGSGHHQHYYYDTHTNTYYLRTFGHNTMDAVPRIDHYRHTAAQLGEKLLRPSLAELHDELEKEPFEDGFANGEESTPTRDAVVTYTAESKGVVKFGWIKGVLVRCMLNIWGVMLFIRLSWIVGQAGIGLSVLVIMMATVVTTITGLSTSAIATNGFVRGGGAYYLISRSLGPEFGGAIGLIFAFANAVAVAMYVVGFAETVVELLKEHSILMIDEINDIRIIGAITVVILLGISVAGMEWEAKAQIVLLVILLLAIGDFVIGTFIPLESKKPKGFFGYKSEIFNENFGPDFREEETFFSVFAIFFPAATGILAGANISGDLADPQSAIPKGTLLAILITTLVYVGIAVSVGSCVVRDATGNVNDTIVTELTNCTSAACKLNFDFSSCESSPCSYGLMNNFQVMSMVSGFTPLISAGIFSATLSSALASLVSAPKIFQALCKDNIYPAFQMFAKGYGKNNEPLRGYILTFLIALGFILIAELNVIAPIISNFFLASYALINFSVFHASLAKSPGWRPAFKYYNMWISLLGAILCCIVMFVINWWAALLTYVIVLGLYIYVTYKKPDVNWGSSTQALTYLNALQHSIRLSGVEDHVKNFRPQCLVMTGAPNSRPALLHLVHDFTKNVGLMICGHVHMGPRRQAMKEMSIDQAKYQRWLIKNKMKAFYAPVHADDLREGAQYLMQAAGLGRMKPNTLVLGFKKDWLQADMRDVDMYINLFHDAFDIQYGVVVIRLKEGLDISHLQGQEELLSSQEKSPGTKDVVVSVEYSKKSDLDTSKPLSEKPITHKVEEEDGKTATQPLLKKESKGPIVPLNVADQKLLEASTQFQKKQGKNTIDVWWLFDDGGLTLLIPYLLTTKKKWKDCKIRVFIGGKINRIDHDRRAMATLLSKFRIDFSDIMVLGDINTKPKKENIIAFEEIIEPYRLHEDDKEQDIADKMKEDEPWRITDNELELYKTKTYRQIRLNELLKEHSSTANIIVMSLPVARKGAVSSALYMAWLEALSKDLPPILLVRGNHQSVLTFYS
Experimental: Na—K—Cl co-transport was measured as ouabain-insensitive, bumetamide-sensitive potassium influx, using ^86Rb as a tracer for potassium. […] The assay medium also contained ^86Rb (1 μCi/ml) (Dupont New England Nuclear, Boston, Mass.). The assay was terminated by rinsing the wells with ice-cold isotonic MgCl2, then extracting the contents with 0.2% sodium dodecyl sulfate (SDS), and determining the amount of radioactive contents by liquid scintillation. Osmolarities of all preincubation and assay media were verified by osmometry (Model 3W2, Advanced Instruments, Norwood, Mass.).
The cells were pretreated with Hepes-buffered minimal essential medium (MEM) ±10 μM bumetamide ±1 mM ouabain for 5 min, then assayed for 5 min in the same media plus ^86Rb. […] Data are means ±SEM, n=12.
Na—K—Cl co-transport activity of glaucomatous human TM cells was assessed as ouabain-insensitive, bumetamide-sensitive K influx, using ^86Rb as a tracer for K, as described previously. TM cells were preincubated for 5 minutes in a Hepes-buffered MEM containing 0 or 10 μM bumetamide in the presence of 1 mM ouabain, followed by a 5 minute assay in media of identical composition except that they also contained ^86Rb. […] Data are mean values ±SEM in seven normal TM cultures (donor age range, 38-68 years, n=12 in each cell culture) and in seven glaucomatous cultures (donor age range 41-75 years, n=7 in each cell culture).
Human TM cells were equilibrated in Hepes-buffered MEM for 30 minutes and then pretreated for 5 minutes in media containing 1 mM ouabain, 10 or 0 μM bumetamide, and 0.3 μM to 1 mM niflumic acid (NA). Cells were then assayed for bumetamide-sensitive K influx for 5 minutes in media identical to the pretreatment media but also containing ^86Rb (1 μCi/ml). […] Dashed line indicates control level of Na—K—Cl co-transport. Data are means ±SEM of at least 4 determinations from 3 experiments.

[2] = tested on: TM cells; experiment: Intracellular [Cl] of TM cells; assay type: cell-based; details: niflumic acid 100 μM

SMILES: O=C(O)c1cccnc1Nc1cccc(C(F)(F)F)c1 [niflumic acid]
- K influx value versus 0 mM NA control ([1]; niflumic acid 0.1 μM): not significantly different
- Na—K—Cl co-transporter activity ([1]; niflumic acid 0.3 μM to 100 μM): significantly stimulate
- intracellular [Cl] of the TM cells [2]: significantly reduced
